Source: patent US12281149B2, “Modulators of G-protein coupled receptors” (priority 2021, dated 2025)
*1 amine or outer side, *2 acyl side, *3 side chain or, on linkers, in order; H or OH if unused. Where a SMILES comes first, the peptide text is derived from it. Side-chain parts run from the residue outwards. [ ]: non-standard residue; d: D form. The star is where a group is joined. C20 diacid = O=C(O)CCCCCCCCCCCCCCCCCCC(=O)*; γGlu = O=C(O)[C@H](CCC(=O)[*:2])N[*:1]; X11 = C[C@@H](C(=O)*)c1ccccc1; AEEA = NCCOCCOCC(=O)O; Aib = CC(C)(N)C(=O)O; βAla = NCCC(=O)O

Legend:
Type in all cases: cell-based
GLP-1 receptor [1] = target: T1, GLP-1 receptor (Homo sapiens, UniProt P43220); test: HitHunter cAMP assay, GLP-1 receptor; conditions: for EC50: CHO cells stably expressing human GLP-1 receptor, cAMP accumulation, 30 min, read-out: EC50 GLP-1R; for Emax: CHO cells, cAMP, normalized to maximum signal from GLP-1 (high) and DMSO (low), read-out: Emax GLP-1R
GIP receptor [2] = target: T2, GIP receptor (Homo sapiens, UniProt P48546); test: HitHunter cAMP assay, GIP receptor; conditions: for EC50: CHO cells stably expressing GIP receptor, cAMP accumulation, 30 min, read-out: EC50 GIP-1R; for Emax: CHO cells, cAMP, normalized to maximum signal from GIP (high) and DMSO (low), read-out: Emax GIP-1R
T2 sequence (P48546 22-466): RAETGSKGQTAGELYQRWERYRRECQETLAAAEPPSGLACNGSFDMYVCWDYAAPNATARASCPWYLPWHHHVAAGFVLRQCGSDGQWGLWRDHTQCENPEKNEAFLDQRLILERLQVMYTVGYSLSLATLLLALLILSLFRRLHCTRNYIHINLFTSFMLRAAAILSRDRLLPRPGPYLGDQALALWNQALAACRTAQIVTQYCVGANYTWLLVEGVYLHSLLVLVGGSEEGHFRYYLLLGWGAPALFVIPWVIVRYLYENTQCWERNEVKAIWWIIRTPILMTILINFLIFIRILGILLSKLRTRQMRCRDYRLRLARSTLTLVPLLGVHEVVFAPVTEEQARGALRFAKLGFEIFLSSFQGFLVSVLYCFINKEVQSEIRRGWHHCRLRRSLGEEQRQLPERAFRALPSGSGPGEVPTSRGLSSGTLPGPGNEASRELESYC

GIP receptor [3] = target: T2, GIP receptor; test: PathHunter β-arrestin assay, GIP receptor; parameters: host or cells: PathHunter CHO-K1 GIPR β-Arrestin Cell Line; conditions: β-arrestin-2 recruitment, PathHunter CHO-K1 GIPR β-Arrestin Cell Line, 90 min at 37° C.; normalized to GIP; read-out: GIPR β Arrestin EC50
GLP-1 receptor [4] = target: T1, GLP-1 receptor; test: PathHunter β-arrestin assay, GLP-1 receptor; parameters: host or cells: PathHunter CHO-K1 GLP1R β-Arrestin Cell Line; conditions: β-arrestin-2 recruitment, PathHunter CHO-K1 GLP1R β-Arrestin Cell Line, 90 min at 37° C.; normalized to GLP-1; read-out: GLP-1R β Arrestin EC50

T1 sequence (P43220 24-463): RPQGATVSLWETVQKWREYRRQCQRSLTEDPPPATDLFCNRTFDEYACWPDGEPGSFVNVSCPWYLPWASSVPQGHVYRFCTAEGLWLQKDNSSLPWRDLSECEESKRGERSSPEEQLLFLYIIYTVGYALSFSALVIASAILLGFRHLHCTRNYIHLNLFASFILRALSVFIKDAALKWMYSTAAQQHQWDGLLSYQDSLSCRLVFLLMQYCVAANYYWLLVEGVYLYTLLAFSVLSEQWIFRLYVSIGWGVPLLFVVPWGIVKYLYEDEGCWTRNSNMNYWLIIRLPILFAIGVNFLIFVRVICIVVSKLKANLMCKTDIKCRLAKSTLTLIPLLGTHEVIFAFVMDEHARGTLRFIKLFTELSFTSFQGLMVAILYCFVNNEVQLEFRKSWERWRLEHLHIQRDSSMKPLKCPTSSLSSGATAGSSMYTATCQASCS

Compound | EC50 (GLP-1 receptor [1]) | Emax (GLP-1 receptor [1]) | EC50 (GIP receptor [2]) | Emax (GIP receptor [2]) | EC50 (GIP receptor [3]) | EC50 (GLP-1 receptor [4])
CC[C@H](C)[C@H](NC(=O)[C@H](CO)NC(=O)[C@H](Cc1ccc(O)cc1)NC(=O)[C@H](CC(=O)O)NC(=O)[C@H](CO)NC(=O)[C@@H](NC(=O)[C@H](Cc1ccccc1)NC(=O)[C@@H](NC(=O)CNC(=O)[C@H](CCC(=O)O)NC(=O)CCNC(=O)C1(c2ccc(Cl)cc2)CCCC1)[C@@H](C)O)[C@@H](C)O)C(=O)N[C@@H](Cc1ccc(O)cc1)C(=O)N[C@@H](CC(C)C)C(=O)N[C@@H](CC(=O)O)C(=O)N[C@@H](CCCCN)C(=O)N[C@@H](CCC(N)=O)C(=O)N[C@@H](C)C(=O)N[C@@H](C)C(=O)NC(C)(C)C(=O)N[C@@H](CCC(=O)O)C(=O)N[C@@H](Cc1ccccc1)C(=O)N[C@H](C(=O)N[C@@H](CC(N)=O)C(=O)N[C@@H](Cc1c[nH]c2ccccc12)C(=O)N[C@@H](CC(C)C)C(=O)N[C@@H](CC(C)C)C(=O)N[C@@H](C)C(=O)NCC(=O)NCC(=O)N1CCC[C@H]1C(=O)N[C@@H](CO)C(=O)N[C@@H](CO)C(=O)NCC(=O)N[C@@H](C)C(=O)N1CCC[C@H]1C(=O)N1CCC[C@H]1C(=O)N1CCC[C@H]1C(=O)N[C@@H](CO)C(=O)N[C@@H](CCCCNC(=O)COCCOCCNC(=O)COCCOCCNC(=O)CC[C@H](NC(=O)CCCCCCCCCCCCCCCCCCC(=O)O)C(=O)O)C(N)=O)C(C)C [Compound 155] | 0.001 to 0.01 µM | 101% | 0.01 to 0.1 µM | 104% | > 1 µM | > 1 µM
CC[C@H](C)[C@H](NC(=O)[C@H](CC(C)C)NC(=O)[C@H](Cc1c[nH]c2ccccc12)NC(=O)[C@H](CCC(N)=O)NC(=O)[C@@H](NC(=O)[C@H](Cc1ccccc1)NC(=O)[C@H](C)NC(=O)[C@H](CCCCNC(=O)COCCOCCNC(=O)COCCOCCNC(=O)CC[C@H](NC(=O)CCCCCCCCCCCCCCCCCCC(=O)O)C(=O)O)NC(=O)[C@H](CCC(N)=O)NC(=O)[C@H](C)NC(=O)[C@@H](NC(=O)[C@H](CCCCN)NC(=O)[C@H](CC(=O)O)NC(=O)[C@H](CC(C)C)NC(=O)C(C)(C)NC(=O)[C@@H](NC(=O)[C@H](CO)NC(=O)[C@H](Cc1ccc(O)cc1)NC(=O)[C@H](CC(=O)O)NC(=O)[C@H](CO)NC(=O)[C@@H](NC(=O)[C@H](Cc1ccccc1)NC(=O)[C@@H](NC(=O)CNC(=O)[C@H](CCC(=O)O)NC(=O)CCNC(=O)[C@H](C)c1ccccc1)[C@@H](C)O)[C@@H](C)O)[C@@H](C)CC)[C@@H](C)CC)C(C)C)C(=O)N[C@@H](C)C(=O)NCC(=O)NCC(=O)N1CCC[C@H]1C(=O)N[C@@H](CO)C(=O)N[C@@H](CO)C(=O)NCC(=O)N[C@@H](C)C(=O)N1CCC[C@H]1C(=O)N1CCC[C@H]1C(=O)N1CCC[C@H]1C(=O)N[C@@H](CO)C(N)=O [Compound 204] ({X11-βAla}-EGTFTSDYSI[Aib]LDKIAQK([AEEA-AEEA-γGlu-C20 diacid])AFVQWLIAGGPSSGAPPPS-NH2) | 0.001 to 0.01 µM | 106% | 0.01 to 0.1 µM | 105% | > 1 µM | > 1 µM
